# Source: the supplement of paper PMC11208160
# Assay: recombinant UMI read abundance after kanamycin selection (control-corrected) (log10(CPM+1)); higher = more efficient recombination; extreme values may be limits of the assay; sequences stand for … in AGTGCAGAGAAAATCGGCCAGTTTTCTCTGCCTGCAGTCCGCATGCCGTGGGACCCCTTGGGTTCTAACCTGTTGCCTAGATTTATGCAGCGGACTGCCTTTCTCCCAAAGTGATAAACCGG…AGGTTGGTTTCACT; site = the 11-nt donor
# Summary of the method: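 Sequenced counts of recombinant UMIs were turned into CPM, averaged across replicates and scaled with control-derived factors. The reported figure is log10(CPM+1). Those UMIs, each 12 nt long, tagged donor and donor-binding-loop pairs on a plasmid with a promoterless kanamycin gene, screened as a pool in Escherichia coli with IPTG (0.07 mM) plus kanamycin or without selection.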
# 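Further: IS621 bridge recombinase in Escherichia coli cells against a fixed T5 target plasmid.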
row,Sequence,recombinant UMI read abundance (log10)
1,TATAGCGCATGGACCGGTTTTCCCGGTAATCCGTATTTGTG (site TATAGCGCTCA),0.205
2,GCGAAGACATGGACCGGTTTTCCCGGTAATCCGTATTTGCT (site GCGAAGACTAG),1.92
3,TCATAATCATGGACCGGTTTTCCCGGTAATCCGTATTTGCA (site TCATACTCTTG),0.606
4,AATGATGCATGGACCGGTTTTCCCGGTAATCCGTATTTGGA (site AATTATGCTTC),0.561
5,CAAGCCGCATGGACCGGTTTTCCCGGTAATCCGTATTTGCT (site CAAGCAGCTAG),2.06
6,CGTTAGACATGGACCGGTTTTCCCGGTAATCCGTATTTGAG (site CGTTTGACTCT),0.0164
7,CGCCGTACATGGACCGGTTTTCCCGGTAATCCGTATTTGTT (site CGCCGTACTAC),0.00659
8,TGTACGTCATGGACCGGTTTTCCCGGTAATCCGTATTTGTT (site CGTACGTCTAA),0.031
9,ACAAGTGCATGGACCGGTTTTCCCGGTAATCCGTATTTGGT (site ACGAGTGCTAC),1.09
10,GCAAAGCCATGGACCGGTTTTCCCGGTAATCCGTATTTGGG (site GCAAAGCCTCC),0.00379
11,CAATCGACATGGACCGGTTTTCCCGGTAATCCGTATTTGTT (site CTATCGACTAA),0.0699
12,CCCATATCATGGACCGGTTTTCCCGGTAATCCGTATTTGCC (site CCCATATCTGT),0.454
13,GAATGGCCATGGACCGGTTTTCCCGGTAATCCGTATTTGCA (site GAATGGGCTTG),0.00704
14,CTTCTCTCATGGACCGGTTTTCCCGGTAATCCGTATTTGTA (site CTTCACTCTTA),0
15,GCTACTGCATGGACCGGTTTTCCCGGTAATCCGTATTTGCC (site ACTACTGCTGG),1.44
16,TAATGTCCATGGACCGGTTTTCCCGGTAATCCGTATTTGTA (site TAATGTCCTTA),0.766
17,GTTGGGGCATGGACCGGTTTTCCCGGTAATCCGTATTTGCG (site GTTGGGGCTCG),2.05
18,CATGCAGCATGGACCGGTTTTCCCGGTAATCCGTATTTGCT (site CAGGCAGCTAG),0.00853
19,ATGAAGACATGGACCGGTTTTCCCGGTAATCCGTATTTGCA (site ATGAAGACTTG),2.64
20,TCAAACTCATGGACCGGTTTTCCCGGTAATCCGTATTTGCA (site TCATACTCTTG),1.92
21,GGTCCAACATGGACCGGTTTTCCCGGTAATCCGTATTTGTA (site GGTCGAACTTA),0.0172
22,ACTAATGCATGGACCGGTTTTCCCGGTAATCCGTATTTGGT (site ACTAGTGCTAC),0.00699
23,AACCGTCCATGGACCGGTTTTCCCGGTAATCCGTATTTGAT (site AGCCGTCCTAT),0.0654
24,CGATCATCATGGACCGGTTTTCCCGGTAATCCGTATTTGCT (site CAATGATCTAG),0
25,CGATCATCATGGACCGGTTTTCCCGGTAATCCGTATTTGCT (site CGATCTTCTAG),0

row,Sequence,recombinant UMI read abundance (log10)
1,CAAGTCACATGGACCGGTTTTCCCGGTAATCCGTATTTGGA (site CAAGTCACTCC),0.638
2,GACCCGCCATGGACCGGTTTTCCCGGTAATCCGTATTTGAG (site GACCCGCCTCT),0.0157
3,GCCCGTTCATGGACCGGTTTTCCCGGTAATCCGTATTTGAG (site GCCCGTTCTCT),2.23
4,CGGGGATCATGGACCGGTTTTCCCGGTAATCCGTATTTGTT (site CGGGGATCTAA),2.63
5,CTATTCCCATGGACCGGTTTTCCCGGTAATCCGTATTTGCT (site CCATTCCCTAG),1.43
6,GCGACCACATGGACCGGTTTTCCCGGTAATCCGTATTTGTT (site GCGACCACTAA),0.823
7,TAAGGAGCATGGACCGGTTTTCCCGGTAATCCGTATTTGGG (site TAATGAGCTCC),0.0199
8,GCGAGGCCATGGACCGGTTTTCCCGGTAATCCGTATTTGGG (site GCGATGCCTCC),0.0249
9,AGTTTGCCATGGACCGGTTTTCCCGGTAATCCGTATTTGAA (site AGTTTGCCTTT),0.00758
10,AGGTTCCCATGGACCGGTTTTCCCGGTAATCCGTATTTGCG (site AGGTTCCCTCG),0.236
11,GCGGAAACATGGACCGGTTTTCCCGGTAATCCGTATTTGCT (site GCGAAAACTAG),0
12,TGGCCGACATGGACCGGTTTTCCCGGTAATCCGTATTTGGC (site TGGCCGTCTGC),0
13,TAAACTCCATGGACCGGTTTTCCCGGTAATCCGTATTTGTA (site TAAACTCCTTA),1.32
14,AAAGTATCATGGACCGGTTTTCCCGGTAATCCGTATTTGCA (site ATAGTATCTTG),2.62
15,AGATCATCATGGACCGGTTTTCCCGGTAATCCGTATTTGTT (site CGATCATCTAG),0
16,AACCAAGCATGGACCGGTTTTCCCGGTAATCCGTATTTGAG (site AGCCAAGCTCT),0.217
17,CCGTAAGCATGGACCGGTTTTCCCGGTAATCCGTATTTGTG (site CCGTCAGCTCA),0.0145
18,GTAGCCTCATGGACCGGTTTTCCCGGTAATCCGTATTTGTT (site GTAGCCTCTAA),2.42
19,TAAAGTCCATGGACCGGTTTTCCCGGTAATCCGTATTTGTA (site TTAAGTCCTTA),0.671
20,ACAACTACATGGACCGGTTTTCCCGGTAATCCGTATTTGTG (site ACAACTACTCA),0.844
21,TAAATTCCATGGACCGGTTTTCCCGGTAATCCGTATTTGTA (site TAAACTCCTTA),0.00609
22,AGTAGAACATGGACCGGTTTTCCCGGTAATCCGTATTTGAG (site AATAGAACTCT),0.806
23,CAAGTCCCATGGACCGGTTTTCCCGGTAATCCGTATTTGGG (site CAAGTCCCTCC),0.00917
24,CGTTTAGCATGGACCGGTTTTCCCGGTAATCCGTATTTGCT (site CGTTTCGCTAG),0
25,TAGAATACATGGACCGGTTTTCCCGGTAATCCGTATTTGCA (site TAGAATACTCG),0

row,Sequence,recombinant UMI read abundance (log10)
1,CCGATAGCATGGACCGGTTTTCCCGGTAATCCGTATTTGTG (site CCGTTAGCTCA),0.0148
2,TGGAGCGCATGGACCGGTTTTCCCGGTAATCCGTATTTGGG (site TGGAGCGCTCC),0.0132
3,CGAAAGACATGGACCGGTTTTCCCGGTAATCCGTATTTGGG (site CGAAAGACTCC),0.621
4,AACCGTCCATGGACCGGTTTTCCCGGTAATCCGTATTTGAT (site AACCGTCCTAC),0.0101
5,TTTGCGGCATGGACCGGTTTTCCCGGTAATCCGTATTTGCA (site TTTGCGGCTAG),0.0111
6,GTATAGACATGGACCGGTTTTCCCGGTAATCCGTATTTGCC (site GCATAGACTGG),2.19
7,ATAAGGGCATGGACCGGTTTTCCCGGTAATCCGTATTTGAC (site ATAAGGTCTGT),2.53
8,GACAACCCATGGACCGGTTTTCCCGGTAATCCGTATTTGGT (site GACAACCCTAC),0
9,AAAAGATCATGGACCGGTTTTCCCGGTAATCCGTATTTGGC (site AAAAGATCTGC),2.65
10,CGAGGATCATGGACCGGTTTTCCCGGTAATCCGTATTTGGG (site CGAGGACCTCC),0.00347
11,TTTGCAGCATGGACCGGTTTTCCCGGTAATCCGTATTTGCT (site TTTGCCGCTAG),0.0123
12,CATAGTCCATGGACCGGTTTTCCCGGTAATCCGTATTTGAA (site CATAGTCCTTT),0.981
13,ATAGTATCATGGACCGGTTTTCCCGGTAATCCGTATTTGCA (site ATAGTATCTTG),3.37
14,CGCCGTGCATGGACCGGTTTTCCCGGTAATCCGTATTTGCT (site CGCCGTACTAG),1.29
15,AACTTGCCATGGACCGGTTTTCCCGGTAATCCGTATTTGGC (site AACTTGCCTGC),0
16,GCAATCGCATGGACCGGTTTTCCCGGTAATCCGTATTTGAG (site GCAATCGCTCT),2.29
17,CAATCGACATGGACCGGTTTTCCCGGTAATCCGTATTTGTT (site CAATCGACTAA),0.347
18,ACACGCACATGGACCGGTTTTCCCGGTAATCCGTATTTGTC (site ACACGGACTGA),0
19,CGGAATGCATGGACCGGTTTTCCCGGTAATCCGTATTTGTG (site CGGAATCCTAA),0
20,CGGGAGTCATGGACCGGTTTTCCCGGTAATCCGTATTTGCC (site CGGGAGTCTAG),2.02
21,CCCCACACATGGACCGGTTTTCCCGGTAATCCGTATTTGTA (site CCACACACTTA),0.0146
22,CAATTCCCATGGACCGGTTTTCCCGGTAATCCGTATTTGCG (site CAATTCCCTAG),1.26
23,GGAGGACCATGGACCGGTTTTCCCGGTAATCCGTATTTGGG (site AGAGGACCTCC),0
24,GTATCAACATGGACCGGTTTTCCCGGTAATCCGTATTTGAA (site GTATCAACTTT),1.01
25,GAATGGGCATGGACCGGTTTTCCCGGTAATCCGTATTTGCA (site GAATGGCCTTG),0.00596
